Source: paper PMC10341549, “Inhibitory Investigations of Acyl-CoA Derivatives against Human Lipoxygenase Isozymes” (International Journal of Molecular Sciences, 2023)

How the values were obtained:
[1] = molecular target: T1, h5-LOX (Homo sapiens, UniProt P09917, C241A/C562A/D45S/DEL41-43/F15H/K654E/K655N/K656L/L77S/N44G/W14E/W76G); assay: IC50 determination against h5-LOX; assay type: biochemical; conditions: 10 μM AA, 50 mM HEPES pH 7.5, 200 µM ATP, ammonium-sulfate precipitate enzyme, 22 °C
T1 sequence (P09917 with tags, fused parts or gaps W14E/F15H/DEL41-43/N44G/D45S/W76G/L77S/C241A/C562A/K654E/K655N/K656L): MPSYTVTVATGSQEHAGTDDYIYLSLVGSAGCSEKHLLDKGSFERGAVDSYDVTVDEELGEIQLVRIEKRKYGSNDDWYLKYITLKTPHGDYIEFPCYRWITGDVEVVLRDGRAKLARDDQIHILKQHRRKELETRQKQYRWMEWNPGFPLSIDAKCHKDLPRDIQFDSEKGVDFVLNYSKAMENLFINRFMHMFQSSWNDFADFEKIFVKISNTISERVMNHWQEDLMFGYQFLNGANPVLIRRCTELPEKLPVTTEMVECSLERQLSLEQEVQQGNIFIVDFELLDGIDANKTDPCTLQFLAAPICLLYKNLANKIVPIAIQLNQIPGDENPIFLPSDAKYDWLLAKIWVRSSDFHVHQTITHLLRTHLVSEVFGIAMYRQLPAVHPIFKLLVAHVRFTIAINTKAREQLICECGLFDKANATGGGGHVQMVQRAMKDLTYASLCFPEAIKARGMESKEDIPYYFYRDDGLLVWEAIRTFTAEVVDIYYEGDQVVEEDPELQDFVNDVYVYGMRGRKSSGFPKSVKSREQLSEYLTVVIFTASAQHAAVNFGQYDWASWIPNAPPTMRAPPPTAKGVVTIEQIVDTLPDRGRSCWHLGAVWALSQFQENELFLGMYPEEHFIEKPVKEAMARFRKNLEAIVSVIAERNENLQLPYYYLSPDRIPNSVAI
Protocol: Overexpression and purification of his-tagged wild-type h12-LOX (Uniprot entry P18054), h15-LOX-1 (Uniprot entry P16050), and h15-LOX-2 (Uniprot entry O15296) were performed using nickel-affinity chromatography. The purity of h12-LOX, h15-LOX-1, and h15-LOX-2 was assessed using SDS gel as greater than 85%, and metal content was assessed with a Finnigan inductively coupled plasma mass spectrometer (ICP-MS, Thermo Fischer Scientific, San Jose, USA) via comparison with iron standard solution. Cobalt-EDTA was used as an internal standard. WT h5-LOX (UniProt entry P09917) was expressed in Rosetta 2 cells (Novagen) transformed with the pET14b-Stable-5-LOX plasmid (a gift from Marcia Newcomer of Louisiana State University) and grown in Terrific Broth containing 34 μg/mL chloramphenicol and 100 μg/mL ampicillin at 37 °C for 3.5 h, then placed at 20 °C for an additional 26 h. Cells were pelleted and resuspended in 50 mM Tris (pH 8.0), 500 mM NaCl, 20 mM imidazole with 1 μM pepstatin, 100 μM PMSF, and DNaseI (Sigma, Kanagawa, Japan). The cells were lysed in a French pressure cell and centrifuged at 40,000× g for 20 min at 4 °C. Saturated ammonium sulfate was added to achieve a final solution of 10% and inverted several times. The lysate was centrifuged at 40,000× g for 10 min at 4 °C. The pellet was discarded, and the supernatant was increased to a final concentration of 50% ammonium sulfate. The supernatant was rotated for 10 min at 4 °C then centrifuged at 40,000× g for 10 min at 4 °C. The pellet was split into 150 mg aliquots. The WT h5-LOX used for the kinetics in this work was not purified due to a dramatic loss in activity and was therefore prepared as an ammonium-sulfate precipitate.
IC50 values for each acyl-CoA were measured against h5-LOX, h12-LOX, h15-LOX-1, and h15-LOX-2. […] The fastest rates over 15 s intervals were recorded. […]

[2] = molecular target: T2, h15-LOX-1 (Homo sapiens, UniProt P16050); assay: Substrate activity and kinetic parameters with h15-LOX-1; assay type: biochemical
T2 construct: His tag; made in house
T2 sequence (P16050 1-662): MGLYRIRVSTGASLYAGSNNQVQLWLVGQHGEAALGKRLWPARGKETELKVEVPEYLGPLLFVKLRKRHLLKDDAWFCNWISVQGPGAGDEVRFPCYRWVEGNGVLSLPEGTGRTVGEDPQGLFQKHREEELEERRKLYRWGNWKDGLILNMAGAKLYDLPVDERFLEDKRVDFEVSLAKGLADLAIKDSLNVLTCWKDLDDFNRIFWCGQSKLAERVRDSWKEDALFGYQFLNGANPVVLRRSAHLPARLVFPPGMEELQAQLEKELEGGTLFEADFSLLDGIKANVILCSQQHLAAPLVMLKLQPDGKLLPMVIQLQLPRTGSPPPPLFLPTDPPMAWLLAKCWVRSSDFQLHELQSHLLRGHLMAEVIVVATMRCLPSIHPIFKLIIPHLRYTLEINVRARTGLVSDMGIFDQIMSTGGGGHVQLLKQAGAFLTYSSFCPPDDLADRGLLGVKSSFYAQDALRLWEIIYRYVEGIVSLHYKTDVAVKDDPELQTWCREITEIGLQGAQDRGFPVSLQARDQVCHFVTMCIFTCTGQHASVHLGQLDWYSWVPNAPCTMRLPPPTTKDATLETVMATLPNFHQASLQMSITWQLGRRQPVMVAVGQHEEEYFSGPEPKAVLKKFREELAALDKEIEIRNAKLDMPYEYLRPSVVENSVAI

[3] = h15-LOX-1, compared with published values [31]

| IC50 [1] [µM] | Km ([2]; as substrate of h15-LOX-1, 22 °C) [µM] | kcat ([2]; as substrate of h15-LOX-1, 22 °C, listed as linoleoyl-CoA) | kcat ([2]; as substrate of h15-LOX-1, 22 °C, listed as linoleoyl-CoA (18:2)) [s⁻¹] | kcat fold less than free linoleic acid [2, 3] [fold] | kcat/KM fold less than free linoleic acid [2, 3] [fold] | Compound |
| --- | --- | --- | --- | --- | --- | --- |
| > 200 | – | – | – | – | – | CCCCC/C=C\C/C=C\C/C=C\CCCCC(=O)SCCNC(=O)CCNC(=O)[C@H](O)C(C)(C)COP(=O)(O)OP(=O)(O)OC[C@H]1O[C@@H](n2cnc3c(N)ncnc32)[C@H](O)[C@@H]1OP(=O)(O)O [ɣ-Linolenoyl-CoA (18:3), ɣ-linolenoyl-coenzyme A (18:3)] |
| > 200 | – | – | – | – | – | CC/C=C\C/C=C\C/C=C\C/C=C\C/C=C\C/C=C\CCC(=O)SCCNC(=O)CCNC(=O)C(O)C(C)(C)COP(=O)(O)OP(=O)(O)OC[C@H]1O[C@@H](n2cnc3c(N)ncnc32)[C@H](O)[C@@H]1OP(=O)(O)O (some centres unmarked) [Docosahexaenoyl CoA (22:6), docosahexaenoyl-coenzyme A (22:6)] |
| > 50 | 12 | 7.5 (0.4) s^−1 | 7.5 ± 0.4 | 1.3 | 7 | CCCCC/C=C\C/C=C\CCCCCCCC(=O)SCCNC(=O)CCNC(=O)[C@H](O)C(C)(C)COP(=O)(O)OP(=O)(O)OC[C@H]1O[C@@H](n2cnc3c(N)ncnc32)[C@H](O)[C@@H]1OP(=O)(O)O [Linoleoyl-CoA (18:2), linoleoyl-CoA] |
